Results on five compounds are retold here after patent US6576430B1, “Detection of ligands by refractive surface methods” (Becton, Dickinson and Company, priority 2000, dated 2003).

Test [1] deals with T1, Tissue transglutaminase (tTG) (Cavia cutleri, UniProt P08587).
T1 construct: purchased Sigma
T1 sequence (P08587 1-690): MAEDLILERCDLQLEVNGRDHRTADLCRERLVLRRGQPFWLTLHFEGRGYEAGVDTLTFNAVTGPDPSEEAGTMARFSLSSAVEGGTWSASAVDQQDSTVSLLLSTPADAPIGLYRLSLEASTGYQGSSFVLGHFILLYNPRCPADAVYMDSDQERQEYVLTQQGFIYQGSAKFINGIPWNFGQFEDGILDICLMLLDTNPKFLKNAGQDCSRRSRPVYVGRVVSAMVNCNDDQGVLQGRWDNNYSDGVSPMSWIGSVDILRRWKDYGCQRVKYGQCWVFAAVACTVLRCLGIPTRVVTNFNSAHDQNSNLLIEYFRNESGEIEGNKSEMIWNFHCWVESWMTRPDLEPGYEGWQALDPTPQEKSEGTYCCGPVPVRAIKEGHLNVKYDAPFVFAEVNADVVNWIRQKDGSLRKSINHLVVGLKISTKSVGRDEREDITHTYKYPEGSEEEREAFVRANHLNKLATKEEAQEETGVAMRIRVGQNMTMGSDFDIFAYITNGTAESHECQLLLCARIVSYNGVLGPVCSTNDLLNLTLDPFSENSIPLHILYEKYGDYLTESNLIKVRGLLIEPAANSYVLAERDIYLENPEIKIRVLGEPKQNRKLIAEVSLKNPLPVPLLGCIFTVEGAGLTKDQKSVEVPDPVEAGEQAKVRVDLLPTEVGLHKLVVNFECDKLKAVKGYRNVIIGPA
As to the kind of experiment: SPR (BIACORE) detection of calcium binding to immobilized tissue transglutaminase. Here is the method:
Tissue transglutaminase (tTG) was obtained from Sigma and prepared at 1.3 mg/mL at pH 4.5 in 10 mM NaOAc. A surface bearing 2500 RU of tTG was prepared using standard EDC/NHS coupling chemistry and was used for all experiments. Ethanolamine (1.0 M, pH 8.0) was used to quench unreacted esters. Calcium chloride was prepared in dH2O at the desired concentrations. Injections were 20 μL at a flow rate of 10 μL/min (2 minute contact time). Report points were collected at 100 seconds post injection. Report points from injections over a blank surface were subtracted. Typical injections over the blank control surface gave minimal (<5 RU) signals, but were subtracted nonetheless. Injections were randomized relative to concentration. Data points were discarded for data collected during obvious anomalies, such as air bubbles. Running buffer was HBS-EP (BIACORE) without calcium supplementation. Calcium was removed from transglutaminase by injection of 5 mM EDTA pH 8.0. After EDTA injection the surface was allowed to stabilize for 300 seconds before additional calcium injections.
In general terms: Surface plasmon resonance follows binding to a sensor surface in real time, without labels.

The target of test [2] is T2, Bovine brain calmodulin (CaM) (Bos taurus, UniProt P62157).
T2 construct: Bovine brain calmodulin (CaM) was obtained from Calbiochem; purchased Calbiochem; host or cells: bovine brain
The test can be described thus: SPR (BIACORE) detection of calcium binding to immobilized calmodulin. Here is the method:
Bovine brain calmodulin (CaM) was obtained from Calbiochem and immobilized onto carboxymethyl dextran gold surfaces using standard BIACORE EDC/NHS coupling chemistry. HBS-EP was used as an eluent. CaM was injected at 0.5 mg/mL in 10 mM sodium acetate, pH 4.0 (54 minute injection). This procedure immobilized approximately 480 RU of calmodulin. During the immobilizations, the flow rate was 5 μL/min. For some experiments, the BIACORE™ 3000 was used. For others, a BIACORE™ Upgrade was used. In general, injections were run at a flow rate of 5 or 10 μL/min, in HBP-EP buffer. Varying concentrations of CaCl2 in HBS-EP (3.5-50 mM) were injected on the CaM and blank surfaces.

Test [3] addresses T3, tTG (Homo sapiens, UniProt P21980).
T3 sequence (P21980 1-687): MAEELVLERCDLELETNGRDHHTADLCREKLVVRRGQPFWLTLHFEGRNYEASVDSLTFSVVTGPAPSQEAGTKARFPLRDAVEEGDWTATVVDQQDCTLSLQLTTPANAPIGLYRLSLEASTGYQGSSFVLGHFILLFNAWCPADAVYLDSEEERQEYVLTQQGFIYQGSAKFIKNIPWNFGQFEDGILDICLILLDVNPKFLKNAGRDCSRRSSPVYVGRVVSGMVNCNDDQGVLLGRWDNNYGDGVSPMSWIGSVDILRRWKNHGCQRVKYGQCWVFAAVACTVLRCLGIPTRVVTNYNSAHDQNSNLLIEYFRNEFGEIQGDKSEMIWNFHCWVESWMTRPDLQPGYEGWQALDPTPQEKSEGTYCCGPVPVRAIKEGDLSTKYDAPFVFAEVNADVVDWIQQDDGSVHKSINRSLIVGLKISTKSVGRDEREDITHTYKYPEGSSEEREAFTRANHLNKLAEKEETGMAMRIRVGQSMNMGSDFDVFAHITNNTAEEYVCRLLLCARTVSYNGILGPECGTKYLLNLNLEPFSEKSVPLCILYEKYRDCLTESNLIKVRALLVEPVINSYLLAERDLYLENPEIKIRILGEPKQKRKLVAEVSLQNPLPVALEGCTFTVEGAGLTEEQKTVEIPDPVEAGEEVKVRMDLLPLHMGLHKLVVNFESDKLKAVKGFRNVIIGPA
Conditions: reported value; read-out: reported Kd of calcium for the protein; cited from earlier work.

The target of test [4] is T4, Glucose/Galactose Binding Protein (GGBP) (Escherichia coli, UniProt P0AEE5).
T4 construct: made in house
As to the kind of experiment: SPR (BIACORE) response of saccharides injected over immobilized GGBP surface. The following applies: surface bearing 2000 RU of GGBP; blank subtracted. The protocol:
Glucose/Galactose Binding Protein (GGBP) was prepared from osmotic shock lysates and coupled to the CM5 chip surface at 20 μM at pH 4.5 in 10 mM NaOAc using standard NHS/EDC procedures. Ethanolamine (1.0 M, pH 8.0) was used to quench unreacted esters and was also found to be effective at removing non-covalently adsorbed protein from the chip surface. Buffer flow was maintained overnight to remove additional non-covalently bound GGBP from the surface before ligand injections were performed. A surface bearing 2000 RU of GGBP was used for experiments. Ligands were prepared in dH2O at the desired concentrations. Injections were 20 μL at a flow rate of 10 μL/min (2 minute contact time). Report points were collected at 100 seconds post injection. Report points from injections over a blank surface were subtracted. Typical injections over the blank control surface gave minimal (<5 RU) signals, but were subtracted nonetheless. Ligand injections were repeated 3-5 times and the order of injection was reversed periodically. Data points were discarded for data collected during obvious anomolies, such as air bubbles. Remaining data was subjected to Q tests and error represents single standard deviations. A single set of sugar solutions was used for injection over the control and test surfaces. Running buffer was HBS-EP (BIACORE) supplemented with 5 mM CaCl2. Bound GGBP ligands were removed either by injection of 100 mM α-methyl mannoside in 10 mM NaOAc pH 4.5 or by 500-1000 seconds of running buffer wash.

For test [5], the target named is T5, MBP (Escherichia coli, UniProt P0AEX9).
T5 construct: made in house
As to the kind of experiment: SPR (BIACORE) detection of maltose binding to immobilized MBP.
Description: MBP was prepared from osmotic shock lysates and coupled to a CM5 (carboxymethyl dextran) chip (BIACORE) using standard EDC/NHS procedures performed with reagents from the BIACORE EDC/NHS coupling kit. MBP was 10 μM at pH 4.5 in 10 mM NaOAc. Hepes Buffered Saline-EP (HBS-EP: 0.01 M HEPES pH 7.4, 0.15 M NaCl, 3 mM EDTA, 0.005% surfactant P20; BIACORE™ AB) was used as an eluent (O'Shannessy et al., 1992) supplemented with 5 mM CaCl2. Ethanolamine (1.0 M, pH 8.0) was used to quench unreacted esters and was also found to be effective at removing non-covalently adsorbed protein from the chip surface. […] Report points were collected at 100 seconds post injection. Report points from injections over a blank surface were subtracted. Data points were discarded for data collected during obvious anomalies, such as air bubbles. Running buffer was HBS-EPA (BIACORE) supplemented with 5 mM CaCl2.
After regeneration the surface was allowed to stabilize for 300 seconds before additional ligand injections.

T4 sequence (P0AEE5 24-332 limits assumed): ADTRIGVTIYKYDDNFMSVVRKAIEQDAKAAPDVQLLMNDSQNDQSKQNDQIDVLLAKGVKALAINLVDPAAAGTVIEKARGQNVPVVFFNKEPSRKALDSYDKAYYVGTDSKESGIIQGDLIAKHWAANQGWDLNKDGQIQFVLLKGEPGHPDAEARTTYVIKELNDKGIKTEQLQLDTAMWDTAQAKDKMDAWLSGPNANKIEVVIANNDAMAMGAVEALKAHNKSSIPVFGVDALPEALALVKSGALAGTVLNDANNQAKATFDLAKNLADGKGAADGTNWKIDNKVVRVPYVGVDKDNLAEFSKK

What is called Kd is the equilibrium constant for the complex coming apart. `[Ca+2].[Cl-].[Cl-]` [calcium, Calcium chloride]: the “change in SPR response on calcium binding to tTG” value in test [1] (SPR, immobilized tTG) is “positive change in response”. Further, the EC50 in test [1] (surface bearing 2500 RU of tTG, running buffer without calcium, read-out: half-maximal response of tTG) was 500 µM. Besides, the “signal over the CaM surface during injection” value in test [2] (50 mM CaCl2, blank surface gave 1502 RU) is 1350 RU. Also, the “change in SPR signal on CaM surface relative to blank surface” value in test [2] (3.5-50 mM CaCl2 in HBS-EP, approximately 480 RU of calmodulin) is reported as “reduction in signal”. Also, in test [3], the Kd is ~1000 µM.

Turning to `OC[C@H]1O[C@H](O[C@H]2[C@H](O)[C@@H](O)[C@@H](O[C@H]3[C@H](O)[C@@H](O)[C@@H](O[C@H]4[C@H](O)[C@@H](O)C(O)O[C@@H]4CO)O[C@@H]3CO)O[C@@H]2CO)[C@H](O)[C@@H](O)[C@@H]1O` (stereo partly drawn) [maltotetraose], the “response in relative RU on injection over the GGBP surface” value (shortened to “response in relative RU on injection”) in test [4] is “negligible or slightly positive increase in relative RU”.

Consider maltotriose, for which, in test [4], the “response in relative RU on injection” value was “negligible or slightly positive increase in relative RU”.

On to `OC[C@H]1O[C@H](O[C@H]2[C@H](O)[C@@H](O)C(O)O[C@@H]2CO)[C@H](O)[C@@H](O)[C@@H]1O` (mixture of isomers) [maltose], for which the “change in RUs on injection over the MBP surface” value in test [5] is “reproducible net decrease in RUs”.

As for cyclodextrins, the “response in relative RU on injection” value in test [4] was “negligible or slightly positive increase in relative RU”.
